Source: patent publication US20140163026A1, “8-ETHYL-6-(ARYL)PYRIDO[2,3-D]PYRIMIDIN-7(8H)-ONES FOR THE TREATMENT OF NERVOUS SYSTEM DISORDERS AND CANCER” (Afraxis Holdings, Inc., priority 2011, published 2014)

What was measured:
[1] = tested on: Nf2−/− SC4 cells transplanted into the sciatic nerve sheath of NOD/SCID mice; assay: Orthotopic NF2 deficient schwannoma mouse model, tumor weight; assay type: in vivo; settings: intraneural Nf2−/− cells, FIG. 5
From the text: The NF2 protein is absent in ˜100% of sporadic schwannomas. Thus, an NF2 deficient-schwanoma mouse model was generated and used to evaluate treatment of sporadic schwannomas with a PAK inhibitor compound disclosed herein.
Murine Nf2^−/− cells may be generated by various means. For example, NF2^−/− cells may be generated by administering an shRNA or siRNA targeting an Nf2 gene, thereby disrupting the Nf2 gene. In another example, NF2^−/− cells may be generated by using a Cre recombinase.
Nf2^−/− SC4 cells may be generated by using a Cre recombinase. Pure populations of embryonic SC4 cells were isolated from Nf 2^loxP/loxP− mice at about embryonic day 13.5. […]
Nf2^−/− cells (e.g., Nf2^−/− SC4 control cells) were transduced by lentiviruses carrying pLuc-mCherry and sorted by FACS. […] Tumor progression was monitored weekly by bioluminescence imaging (BLI) according to the manufacturer's instructions on an IVIS-200 system. The mice were sacrificed and the tumors from the vehicle control treated and PAK inhibitor treated mice were measured.
NF2^−/− cells (e.g., Nf2^−/− SC4 control cells) were transduced by lentiviruses carrying pLuc-mCherry and sorted by FACS. […] Tumor progression was monitored weekly by bioluminescence imaging (BLI) according to the manufacturer's instructions on an IVIS-200 system. […]
At various time points, treatment efficacy was determined. […]

Nf2−/− SC4 cells = assay: Growth inhibition of NF2 deficient cells (CellTiter-Glo); assay type: cell-based, mouse; settings: 1 uM concentration for 72 hours, FIG. 4
Method: (§1) NF2 deficient cell lines were cultured in the appropriate medium. Once enough cells have propagated, plates of all adherent lines were seeded at 5,000-10,000 cells/well (depending on cell line) in a total volume of 50 μL, and plates of all suspension lines at 10,000-20,000 cells/well (depending on cell line) in a total volume of 50 μL. Plates were placed in a humidified cell culture incubator overnight to allow adherent cells to attach.
(§2) 10 mM stocks of each PAK inhibitor compound in DMSO were prepared. Dilutions were performed with media to provide 1% DMSO 2× stock solutions of each PAK inhibitor compound.
50 μL of all PAK inhibitor compound 2× stocks were added to appropriate wells already containing 50 μL of cells and medium to expose cells to the final concentrations of compounds required. 50 μL of media was added to media and cell control wells and 50 μL of mix to vehicle control wells. At the same time as drug exposure, a CTG (CellTiter-Glo Assay) assay was performed on the 0 hr plate to obtain a 0 hr count. […]
At the end of the 72 hour exposure period, plates were removed for a CTG assay from 37° C., 5% CO2 incubator and place on the bench at room temperature for 30 mins. […] Luminescence for each well was determined.
Growth inhibition percent was calculated using the following equation: (Growth %=(Sample Value−T0Ave)/(Max−T0Ave)*100). […]

[2] = tested on: NF2−/− mesothelioma cells (NCI-H226); assay: as above; assay type: cell-based; settings: 0 μM-30 μM, 72 hours, FIG. 7
Method: as §1, §2
50 μL of all PAK inhibitor compound 2× stocks were added to appropriate wells already containing 50 μL of cells and medium to expose cells to the final concentrations of compounds required. 50 μL of media was added to media and cell control wells and 50 μL of mix to vehicle control wells. At the same time as drug exposure, a CTG (CellTiter-Glo Assay) assay was performed on the 0 hr plate to obtain a 0 hr count. Cells were exposed to PAK inhibitor compounds or a DMSO control for 72 hours. Following the 72 hour exposure period, all remaining plates were assayed using CTG.
At the end of the 72 hour exposure period, plates were removed for a CTG assay from 37° C., 5% CO2 incubator and place on the bench at room temperature for 30 mins. 100 μL CTG reagent was added to each well, mixed for 2 minutes, followed by a further 10 minute incubation at room temperature. Luminescence for each well was determined.
Growth inhibition percent was calculated using the following equation: (Growth %=(Sample Value−T0Ave)/(Max−T0Ave)*100).
NF2^−/− mesothelioma cells (e.g., NCI-H226 cells) were treated with varying concentrations of a PAK inhibitor compound disclosed in Examples 33, 84, or 122.

CCn1c(=O)c(-c2ccc(-c3cncs3)cc2Cl)cc2cnc(Nc3ccc(N4CCN(C)CC4)cc3)nc21 [Example 84]
average tumor weight versus vehicle control treated mice [1]: less than the average tumor weight of the vehicle control treated mice
cell number compared to DMSO control treated cells (Nf2−/− SC4 cells): reduction in cell number
growth (%) with increasing concentration [2]: the growth (%) of the cells reduced
